According to US20080095869A1, “Anticancer Treatment” (priority 2004, published 2008):
pEC50: −log10 of the molar value. Where two headings read alike, the source gives them in different places. Values belong to the compound of their own block, whether it stands above or below them.

Experiments:
[1] = target: T1, tNOX from HeLa (Homo sapiens, UniProt Q16206); assay: Spectrophotometric NADH oxidase assay, NOX activity from the HeLa cell surface; format: biochemical; conditions: for Response of NOX activity from the HeLa cell surface when combined with sulforaphane: sequential additions, preceding or following sulforaphane (FIGS. 7, 8)
T1 construct: The cells were thawed at room temperature, resuspended and incubated at 37° C. for 1 h to release the protein
T1 sequence (Q16206 1-610): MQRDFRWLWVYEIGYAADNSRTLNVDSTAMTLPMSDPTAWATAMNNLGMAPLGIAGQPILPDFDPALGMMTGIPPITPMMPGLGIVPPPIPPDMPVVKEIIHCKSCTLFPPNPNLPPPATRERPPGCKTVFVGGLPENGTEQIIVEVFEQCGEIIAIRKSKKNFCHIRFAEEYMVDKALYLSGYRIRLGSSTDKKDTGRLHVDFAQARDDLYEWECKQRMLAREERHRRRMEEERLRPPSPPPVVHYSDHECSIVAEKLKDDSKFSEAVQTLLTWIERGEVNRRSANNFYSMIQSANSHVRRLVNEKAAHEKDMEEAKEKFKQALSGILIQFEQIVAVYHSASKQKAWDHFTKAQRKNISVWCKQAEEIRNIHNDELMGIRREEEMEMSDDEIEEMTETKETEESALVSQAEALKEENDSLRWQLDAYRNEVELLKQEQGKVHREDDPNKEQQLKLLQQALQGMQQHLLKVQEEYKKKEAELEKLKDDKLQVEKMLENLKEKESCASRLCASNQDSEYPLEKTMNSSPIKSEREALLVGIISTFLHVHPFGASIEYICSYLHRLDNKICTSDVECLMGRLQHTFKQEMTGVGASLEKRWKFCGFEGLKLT
Experimental: HeLa S cells (grown in suspension) were collected by centrifugation and shipped frozen by a commercial supplier (Cellex Biosciences, Minneapolis, Minn.) In 0.1 m sodium acetate, pH 5, in a ratio of 1 mL packed cell volume to 1 mL acetate. The cells were thawed at room temperature, resuspended and incubated at 37° C. for 1 h to release the protein. The cells were removed by centrifugation at 37000 g for 60 min and the cell-free supernatants were refrozen and stored in 1 mL samples at −70° C.

[2] = target: tNOX of 4T1 mouse mammary cells (Mus musculus, UniProt Q8R0Z2); assay: biochemical
Sequence of tNOX of 4T1 mouse mammary cells (Q8R0Z2 whole entry): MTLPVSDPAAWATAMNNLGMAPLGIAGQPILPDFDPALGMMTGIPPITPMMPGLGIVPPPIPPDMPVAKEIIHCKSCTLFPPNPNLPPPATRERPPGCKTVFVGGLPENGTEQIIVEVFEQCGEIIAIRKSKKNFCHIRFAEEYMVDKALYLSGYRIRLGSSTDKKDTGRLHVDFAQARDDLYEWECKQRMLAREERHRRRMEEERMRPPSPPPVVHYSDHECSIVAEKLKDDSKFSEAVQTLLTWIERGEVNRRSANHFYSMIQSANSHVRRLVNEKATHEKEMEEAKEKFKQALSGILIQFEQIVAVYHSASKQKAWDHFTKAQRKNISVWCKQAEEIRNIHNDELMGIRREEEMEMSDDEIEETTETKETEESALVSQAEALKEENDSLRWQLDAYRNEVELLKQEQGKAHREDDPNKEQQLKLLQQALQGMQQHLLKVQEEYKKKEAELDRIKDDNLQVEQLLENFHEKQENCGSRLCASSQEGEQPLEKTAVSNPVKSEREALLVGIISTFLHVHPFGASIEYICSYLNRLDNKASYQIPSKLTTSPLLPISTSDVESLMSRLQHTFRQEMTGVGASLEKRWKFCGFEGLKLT
Experimental: (§1) NADH oxidase activity was determined as the disappearance of NADH measured at 340 nm in a reaction mixture containing 25 mM Tris-Mes buffer (pH 7.2), 1 mM KCN to inhibit low levels of mitochondrial oxidase activity, and 150 ([…] NADH at 37° C. with temperature control (±0.5°) and stirring (14). Activity was measured using paired Hitachi U3210 spectrophotometers. Assays were initiated by addition of NADH. With plasma membranes and whole cells, assays were for 1 min and were repeated on the same sample every 1.5 min for the time indicated. A millimolar extinction coefficient of 6.22 was used to determine specific activity. Proteins were estimated by the bicinchoninic acid method with bovine serum albumin as standard.

[3] = system: CNOX activity of soybean plasma membranes; conditions: plasma membranes from dark-grown soybean hypocotyls, lack tNOX (FIG. 5)
Experimental: as §1

[4] = target: CNOX of non-cancer MCF-10A human mammary epithelia (Homo sapiens, UniProt Q8TC92); conditions: non-cancer cells which lack tNOX (FIG. 4)
Sequence of CNOX of non-cancer MCF-10A human mammary epithelia (Q8TC92 whole entry): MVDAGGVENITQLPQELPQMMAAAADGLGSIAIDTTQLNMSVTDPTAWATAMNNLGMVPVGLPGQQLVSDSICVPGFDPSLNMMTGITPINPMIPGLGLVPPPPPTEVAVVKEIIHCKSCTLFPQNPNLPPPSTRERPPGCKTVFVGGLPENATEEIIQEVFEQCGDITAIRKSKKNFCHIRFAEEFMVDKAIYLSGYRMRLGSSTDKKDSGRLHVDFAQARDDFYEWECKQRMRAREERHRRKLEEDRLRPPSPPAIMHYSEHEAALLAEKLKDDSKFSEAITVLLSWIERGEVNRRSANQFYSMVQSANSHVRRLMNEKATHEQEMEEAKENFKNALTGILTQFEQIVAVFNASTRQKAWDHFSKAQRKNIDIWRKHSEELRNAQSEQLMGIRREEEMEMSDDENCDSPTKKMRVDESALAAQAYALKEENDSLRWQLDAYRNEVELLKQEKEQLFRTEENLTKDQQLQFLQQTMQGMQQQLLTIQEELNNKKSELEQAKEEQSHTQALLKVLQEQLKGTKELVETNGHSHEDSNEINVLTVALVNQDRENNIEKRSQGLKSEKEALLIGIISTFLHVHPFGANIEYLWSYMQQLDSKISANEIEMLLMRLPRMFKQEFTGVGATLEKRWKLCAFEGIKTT
Experimental: as §1

[5] = system: HeLa cells; assay: Growth of HeLa cells in culture (96-well crystal violet); format: cell-based; conditions: Homo sapiens, 48 and 72 h of treatment (FIG. 6), read-out: EC50 for inhibition of growth of HeLa cells
Experimental: HeLa (ATCC CCL-2) human cervical adenocarcinoma cells were cultured in minimal essential medium (Eagle), with 2 mM L-glutamine and Earle's balanced salt solution adjusted to contain 1.5 g/L sodium bicarbonate, 0.2 mM non-essential amino adds, 1.0 mM sodium pyruvate and supplemented with 10% bovine calf serum (heat-inactivated) plus 50 mg/L gentamycin sulfate (Sigma).
HeLa (5×10^4) or CHO (10^4) cells were distributed into each plate well (Costar tissue culture plate).

[6] = system: human mammary cancer (BT-20) cells; assay: cells; conditions: BT-20, read-out: EC50 for inhibition of growth of BT-20 cells
Experimental: (§2) Growth was determined using a 96-well plate assay as described by Lin et al. (17). HeLa (5×10^4) or CHO (10^4) cells were distributed into each plate well (Costar tissue culture plate). The cells were grown at 37° C. for 24 h after which the substances to be evaluated were added followed by incubation for an additional 48 or 72 h as indicated. Medium was removed and the cells were washed with phosphate-buffered saline and then fixed by addition of […] 2.5% (v/v) glutaraldehyde for 0.5 h followed by a distilled water wash. The cells were stained with […] 1% aqueous crystal violet for 0.5 h, washed exhaustively with distilled water followed by […] 33% (v/v) acetic acid for 5 min. The absorbance was determined at 580 nm using an automated plate reader. Growth was determined according to the formula [(b−c)×100]/(a−c)] where a=absorbance of cells in medium without treatment b=cells in medium with treatment and c=medium alone (background).

[7] = system: non-cancer MCF-10A cells; conditions: compared with cancer cells
Experimental: as §2

Compound: (−)-epigallocatechin gallate [EGCg]
Response of NOX activity from the HeLa cell surface when combined with sulforaphane [1]: antagonistic

pEC50 ([1]; NOX activity from HeLa cell surface (FIGS. 1 and 2)): ~3.00 | pEC50 [2]: ~3.00 | Effect on CNOX (NOX activity) of MCF-10A human mammary epithelia [4]: unaffected | Effect on CNOX (NOX activity) of MCF-10A human mammary epithelia ([4]; listed as Sulforaphane): does not inhibit | pEC50 [5]: 3.00 to 4.00 | pEC50 [6]: 3.00 to 4.00
Compound: C[S@@+]([O-])CCCCN=C=S [L-Sulforaphane]
Effect on CNOX activity of soybean plasma membranes [3]: unaffected | Effect on CNOX activity of soybean plasma membranes ([3]; listed as Sulforaphane): does not inhibit | Inhibition of growth of non-cancer MCF-10A cells [7]: inhibited to nearly the same extent as the cancer cells

Response of NOX activity from the HeLa cell surface when combined with sulforaphane [1]: beneficial response
Compound: COc1cc(CNC(=O)CCCC/C=C/C(C)C)ccc1O [capsaicin, 8-methyl-N-vanillyl-6-noneamide]

Response of NOX activity from the HeLa cell surface when combined with sulforaphane [1]: beneficial response
Compound: COc1cc(CN)ccc1O [vanillylamine]
